# Assay results from ChEMBL document CHEMBL5338781, “Fragment-Based Approaches to Identify RNA Binders” (J Med Chem, 2023).
# Columns and labels:
# [1] = Binding affinity to HIV-1 RNA by SPR analysis; parameters: species or system Human immunodeficiency virus 1
# [2] = Inhibition of pri-miR-96 biogenesis in human MDA-MB-231 cells; format: cell-based
# [3] = Binding affinity to pri-miR-96 (unknown origin)
# Bacterial 70S ribosome = test: Inhibition of Mycobacterium smegmatis ribosomes assessed as inhibition of translation activity; format: subcellular, Mycolicibacterium smegmatis
# microRNA 21 [4] = test: Binding affinity to pre-miR-21 (unknown origin); format: nucleic-acid assay
# microRNA 21 [5] = test: Inhibition of pre-miR-21 biogenesis in human Triple-negative breast cancer cell; format: cell-based
# microRNA 21 [6] = test: Inhibition of pre-miR-21 biogenesis in human MDA-MB-231 cells; format: cell-based
# [7] = Binding affinity to Escherichia coli ThiM TPP riboswitch
# RNA = test: Binding affinity to RNA (unknown origin) by fluorescence based analysis; format: nucleic-acid assay
# Escherichia coli [8] = test: Binding affinity to Escherichia coli ThiM TPP riboswitch assessed as inhibition of conformational switching
# [9] = Inhibition of pre-miR-372 biogenesis in human AGS cells; format: cell-based
# [10] = Binding affinity to pre-miR-372 (unknown origin)
# [11] = target: T1, Sulfhydryl oxidase 1 (Homo sapiens) (UniProt O00391); test: Inhibition of QSOX1 in human MDA-MB-231 cells at 20 uM relative to control; format: cell-based
# T1 sequence (whole entry): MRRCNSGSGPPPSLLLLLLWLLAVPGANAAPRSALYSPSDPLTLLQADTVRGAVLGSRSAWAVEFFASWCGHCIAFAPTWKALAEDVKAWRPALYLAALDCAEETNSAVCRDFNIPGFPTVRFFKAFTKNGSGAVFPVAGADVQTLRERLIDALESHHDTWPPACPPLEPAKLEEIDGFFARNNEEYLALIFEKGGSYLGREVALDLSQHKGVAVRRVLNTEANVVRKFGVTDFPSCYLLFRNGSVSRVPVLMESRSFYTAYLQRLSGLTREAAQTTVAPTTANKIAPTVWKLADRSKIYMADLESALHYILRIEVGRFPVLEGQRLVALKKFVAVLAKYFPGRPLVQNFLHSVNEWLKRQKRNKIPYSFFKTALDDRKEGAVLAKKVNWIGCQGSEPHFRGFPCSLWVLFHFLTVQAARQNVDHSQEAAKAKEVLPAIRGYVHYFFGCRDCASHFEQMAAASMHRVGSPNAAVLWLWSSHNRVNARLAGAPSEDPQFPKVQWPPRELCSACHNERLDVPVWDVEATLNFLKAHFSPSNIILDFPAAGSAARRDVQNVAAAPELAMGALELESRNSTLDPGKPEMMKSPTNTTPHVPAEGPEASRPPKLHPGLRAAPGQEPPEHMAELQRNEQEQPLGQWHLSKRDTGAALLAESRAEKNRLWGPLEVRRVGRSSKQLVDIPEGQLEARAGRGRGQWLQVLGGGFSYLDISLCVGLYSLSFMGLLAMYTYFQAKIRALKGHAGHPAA
# Escherichia coli [12] = test: Antibacterial activity against Escherichia coli assessed as bacterial growth inhibition; format: functional
# Staphylococcus aureus = test: Antibacterial activity against Staphylococcus aureus assessed as bacterial growth inhibition; format: functional
# Sulfhydryl oxidase 1 = target: T2, Sulfhydryl oxidase 1 (Homo sapiens, UniProt O00391); test: Binding affinity to QSOX1 in human MDA-MB-231 cells; format: cell-based
# T2 sequence (O00391 whole entry): T1 sequence (whole entry)
# [13] = Binding affinity to bacteria RNA by HTS method
# [14] = Binding affinity to HIV1 TAR RNA assessed as inhibition of Tat-mediated transactivation; format: functional, Human immunodeficiency virus 1
# Influenza B virus = test: Antiviral activity against Influenza B virus assessed as inhibition of virus-induced cytopathic effect; format: functional, organism-based
# [15] = Binding affinity to influenza A virus RNA by one-dimensional NMR spectroscopy method
# Influenza A virus = test: Antiviral activity against Influenza A virus assessed as inhibition of virus-induced cytopathic effect; format: functional, organism-based
smiles,measurement,setting,value
COc1ccc2nc3cc(F)ccc3c(N)c2c1,Kd,[1],59 µM
CN1CCN(c2ccc3nc(-c4ccc5[nH]c(-c6cccc(OCCCC(=O)NCCN=[N+]=[N-])c6)nc5c4)[nH]c3c2)CC1,IC50,[2],~0.02 µM
same,Kd,[3],1.3 µM
Cc1nc(CN2CCN(Cc3csc(-c4ccccc4)n3)CC2)cs1,IC50,Bacterial 70S ribosome,9.1 µM
CN1CCN(c2ccc(-c3ccc4nc(-c5ccc(OCCCC(=O)N6CCN(c7nncc8sccc78)CC6)cc5)[nH]c4c3)cc2)CC1,Kd,microRNA 21 [4],0.352 µM
same,IC50,microRNA 21 [5],~1 µM
same,IC50,microRNA 21 [6],~1 µM
CNCc1cc2cccnc2s1,Kd,[7],60 µM
CCc1nc2ccccc2cc1C(=O)N[C@@H](CSSC[C@H](NC(=O)c1cc2ccccc2nc1CC)C(=O)N1CCC[C@H]1C(=O)N[C@@H](Cc1ccccc1)C(=O)NCCCCCC(N)=O)C(=O)N1CCC[C@H]1C(=O)N[C@@H](Cc1ccccc1)C(=O)NCCCCCC(N)=O,Kd,[1],4.1 µM
Nc1csc(Br)n1,Kd,RNA,650 µM
CCN1CCN(Cc2csc(-c3ccccc3)n2)CC1,IC50,Bacterial 70S ribosome,2.8 µM
OCc1ccc2nsnc2c1,Kd,[7],56 µM
COc1ccc2nc3cc(F)ccc3c(Nc3ccc(C(=O)Nc4ccncc4)cc3)c2c1,Kd,[1],1 µM
CCCN(CC(=O)N(CCC)CC(=O)N(CC(N)=O)Cc1cn(CCCNC(=O)CCCOc2c(C(C)(C)C)cc(-c3nc4cc(N5CCN(C)CC5)ccc4[nH]3)cc2C(C)(C)C)nn1)C(=O)CCCOc1cccc(-c2nc3ccc(-c4nc5ccc(N6CCN(C)CC6)cc5[nH]4)cc3[nH]2)c1,IC50,[2],~0.05 µM
same,Kd,[3],0.085 µM
Nc1ccc2nccnc2c1,Kd,[7],22 µM
c1cc(N2CCNCC2)ccn1,Kd,[7],620 µM
Nc1ccnc(N)n1 [DIAMINOPYRIMIDINE],Kd,RNA,80 µM
c1cc(N2CCNCC2)c(NCc2ccc3nccnc3c2)cn1,K,Escherichia coli [8],68 µM
same,Kd,[7],0.068 µM
O=c1[nH]cccc1-c1nc(-c2cccc(Cl)c2)no1,IC50,[9],~1 µM
same,Kd,[10],0.3 µM
C#CCCC1(CCC(=O)N(C)[C@H]2CC[C@@H](c3ccc(Cl)c(Cl)c3)c3ccccc32)N=N1,inhibition,[11],15%
CN(C)CCCOc1ccc(C(NC(=O)c2ccc(-c3cccc(NC(=O)c4ccc(-c5ccccc5)cc4)c3)o2)C(=O)N2CCNCC2)cc1 (centres undefined),MIC,Escherichia coli [12],6 µM
same,MIC,Staphylococcus aureus,3 µM
CCOC(=O)C1=C(Nc2ccccc2)S/C(=C\c2ccc(OCCOCCOCCOCCNC(=O)CCC(=O)N(C)[C@H]3CC[C@@H](c4ccc(Cl)c(Cl)c4)c4ccccc43)c(O)c2)C1=O,Kd,Sulfhydryl oxidase 1,16 µM
Cc1nc(N)nc(N)n1,Kd,RNA,110 µM
NCC[C@@H](NC(=O)c1ccc(-c2cccc(NC(=O)c3ccc4nc(O)c(O)nc4c3)c2)o1)C(=O)N1CCNCC1,Kd,[13],6.5 µM
Nc1nc2[nH]nc(N)n2n1,Kd,RNA,370 µM
Nc1ccc2ccnc(N)c2c1,IC50,[14],150 µM
Cc1ncc(CN=[N+]=[N-])cn1,Kd,[7],49 µM
CCc1nc2cc3ccccc3cc2cc1C(=O)N(C)[C@@H](CCn1cc(C[C@@H](C(=O)N2CCC[C@H]2C(=O)N(C)[C@@H](Cc2ccccc2)C(=O)NCCCN)N(C)C(=O)c2cc3cc4ccccc4cc3nc2CC)nn1)C(=O)N1CCC[C@H]1C(=O)N(C)[C@@H](Cc1ccccc1)C(=O)NCCCN,Kd,[1],0.016 µM
CN1CCN(c2ccc(-c3ccc4nc(-c5ccc(OCCCC(=O)CCCN=[N+]=[N-])cc5)[nH]c4c3)cc2)CC1,Kd,microRNA 21 [4],18 µM
NC1=Nc2cccc3cccc(c23)N1,IC50,[14],50 µM
CN1CCN(c2ccc3nc(-c4cc(C(C)(C)C)c(OCCCC(=O)NCCCN=[N+]=[N-])c(C(C)(C)C)c4)[nH]c3c2)CC1,Kd,[3],1.5 µM
"Nc1ccc2nc(N)nc(N)c2c1 [QUINAZOLINE-2,4,6-TRIAMINE]",IC50,[14],40 µM
COc1cc2nc(N3CCNCC3)nc(N)c2cc1OC [AMINODIMETHOXYQUINAZOLINYLPIPERAZINE],EC50,Influenza B virus,71 µM
same,Kd,[15],50 µM
same,EC50,Influenza A virus,71 µM
